pEC50: −log10 of the molar value. Read-outs that look alike come from different tables or passages of the source.

Drawing on patent US12208110B2 (priority 2020, dated 2025), this text covers EC50 and CC50 for 17 molecules.

Holding throughout (format): cell-based
Series [1] has as its system RSV-Fluc (Recombinant Respiratory Syncytial virus strain A2 containing the firefly luciferase reporter). The experiment in a line: microbe, parasite or virus in culture. Particulars: human respiratory syncytial virus, NHBE, 72 h, read-out: RSV-Fluc EC50 (nM, NHBE).
A further series has as its system SARS-CoV-2. The experiment in a line: microbe, parasite or virus in culture. To be noted: Severe acute respiratory syndrome coronavirus 2, 48 h.
Series [2] can be described thus: MT4 cytotoxicity analysis (CellTiter-Glo). To be noted: human. The protocol:
Example 79: MT4 Cytotoxicity Analysis
3-fold serially diluted compound in DMSO, ranging from 2.5 uM to 10 mM, were added by acoustic transfer (Echo) in quadruplicate into black 384-well plates at 200 nl/well. After compound addition, 40 ul MT-4 cells at 80,000/ml were added to each well using a MicroFlo liquid dispenser (BioTek, Winooski, VT) and the cells were cultured for five days at 37° C. Following the incubation, cell viability was determined by adding 35 μL of CellTiter-Glo viability reagent and mixed thoroughly using ViaFlo 384 well workstation. The mixture was incubated for at least 10 minutes at 25° C., and the luminescence signal was quantified on an EnVision plate reader.
(In general: In ATP-based viability assays light output follows the ATP content of the culture.)

Consider `CCCCCCCCCCCCCCCCCCOC[C@H](COP(=O)(O)OC[C@H]1O[C@@](C#N)(c2ccc3c(N)ncnn23)[C@H](O)[C@@H]1O)Nc1ccccc1C(=O)O` [Example 31, 2-(((2R)-1-(((((2R,3S,4R,5R)-5-(4-aminopyrrolo[2,1-f][1,2,4]triazin-7-yl)-5-cyano-3,4-dihydroxytetrahydrofuran-2-yl)methoxy)(hydroxy)phosphoryl)oxy)-3-(octadecyloxy)propan-2-yl)amino)benzoic acid], for which the concentration giving a half-maximal response (EC50) in series [1] turned out to be 260 nM. In the series with SARS-CoV-2, this molecule showed a pEC50 of 5.20. In series [2] (MT4 CC50 (nM)), this molecule had a CC50 at 5 days of 38000 nM.
Take `CCCCCCCCCCCCCCCCCCOC[C@H](COP(=O)(O)OC[C@H]1O[C@@](C#N)(c2ccc3c(N)ncnn23)[C@H](O)[C@@H]1O)OCc1cc(F)cc(S(C)(=O)=O)c1` [Example 32, ((2R,3S,4R,5R)-5-(4-aminopyrrolo[2,1-f][1,2,4]triazin-7-yl)-5-cyano-3,4-dihydroxytetrahydrofuran-2-yl)methyl ((R)-2-((3-fluoro-5-(methylsulfonyl)benzyl)oxy)-3-(octadecyloxy)propyl) hydrogen phosphate]: in series [1], the 50% effective concentration (EC50) was 40 nM. Besides, in the series on SARS-CoV-2, the pEC50 was 6.92. For the same molecule, in series [2] (MT4 CC50 (nM)), the CC50 at 5 days came out at 340 nM.
In the same order, the values of `CCCCCCCCCCCCCCCCCCOC[C@H](COCc1cc(F)cc(C#N)c1)OP(=O)(O)OC[C@H]1O[C@@](C#N)(c2ccc3c(N)ncnn23)[C@H](O)[C@@H]1O` [Example 36, ((2R,3S,4R,5R)-5-(4-aminopyrrolo[2,1-f][1,2,4]triazin-7-yl)-5-cyano-3,4-dihydroxytetrahydrofuran-2-yl)methyl ((R)-1-((3-cyano-5-fluorobenzyl)oxy)-3-(octadecyloxy)propan-2-yl) hydrogen phosphate] are 190 nM, 5.92 and 28000 nM.
For `CCCCCCCCCCCCCCCCCCOC[C@H](COc1cc(F)cc(C#N)c1)OP(=O)(O)OC[C@H]1O[C@@](C#N)(c2ccc3c(N)ncnn23)[C@H](O)[C@@H]1O` [Example 39, ((2R,3S,4R,5R)-5-(4-aminopyrrolo[2,1-f][1,2,4]triazin-7-yl)-5-cyano-3,4-dihydroxytetrahydrofuran-2-yl)methyl ((R)-1-(3-cyano-5-fluorophenoxy)-3-(octadecyloxy)propan-2-yl) hydrogen phosphate], the EC50 in series [1] was 78 nM. Besides, the negative-log EC50 (pEC50) with SARS-CoV-2 was 6.72. Also, the CC50 at 5 days in series [2] (MT4 CC50 (nM)) was found to be 2800 nM.
In the same order, the values of `CCCCCCCCCCCCCCCCCCOC[C@H](COc1ccc(C#N)cn1)OP(=O)(O)OC[C@H]1O[C@@](C#N)(c2ccc3c(N)ncnn23)[C@H](O)[C@@H]1O` [Example 41, ((2R,3S,4R,5R)-5-(4-aminopyrrolo[2,1-f][1,2,4]triazin-7-yl)-5-cyano-3,4-dihydroxytetrahydrofuran-2-yl)methyl ((R)-1-((5-cyanopyridin-2-yl)oxy)-3-(octadecyloxy)propan-2-yl) hydrogen phosphate] are 63 nM, 6.89 and 1900 nM.
In the case of `CCCCCCCCCCCCCCCCCCOC[C@H](COP(=O)(O)OC[C@H]1O[C@@](C#N)(c2ccc3c(N)ncnn23)[C@H](O)[C@@H]1O)Nc1ccc(C#N)cn1` [Example 42, ((2R,3S,4R,5R)-5-(4-aminopyrrolo[2,1-f][1,2,4]triazin-7-yl)-5-cyano-3,4-dihydroxytetrahydrofuran-2-yl)methyl ((R)-2-((5-cyanopyridin-2-yl)amino)-3-(octadecyloxy)propyl) hydrogen phosphate], the EC50 in series [1] stood at 180 nM. Besides, the negative-log EC50 (pEC50) in the series on SARS-CoV-2 is 5.34. In addition, the CC50 at 5 days in series [2] (MT4 CC50 (nM)) is 550 nM.
In the same order, the values of `CCCCCCCCCCCCCCCCCCOC[C@H](COP(=O)(O)OC[C@H]1O[C@@](C#N)(c2ccc3c(N)ncnn23)[C@H](O)[C@@H]1O)OCc1cncc(S(C)(=O)=O)c1` [Example 43, ((2R,3S,4R,5R)-5-(4-aminopyrrolo[2,1-f][1,2,4]triazin-7-yl)-5-cyano-3,4-dihydroxytetrahydrofuran-2-yl)methyl ((R)-2-((5-(methylsulfonyl)pyridin-3-yl)methoxy)-3-(octadecyloxy)propyl) hydrogen phosphate] are 59 nM, 7.10 and 280 nM.
Take `CCCCCCCCCCCCCCCCCC(=O)NC[C@H](COP(=O)(O)OC[C@H]1O[C@@](C#N)(c2ccc3c(N)ncnn23)[C@H](O)[C@@H]1O)OCc1cc(F)cc(C#N)c1` [Example 45, ((2R,3S,4R,5R)-5-(4-aminopyrrolo[2,1-f][1,2,4]triazin-7-yl)-5-cyano-3,4-dihydroxytetrahydrofuran-2-yl)methyl ((R)-2-((3-cyano-5-fluorobenzyl)oxy)-3-stearamidopropyl) hydrogen phosphate]: in series [1], the concentration giving a half-maximal response (EC50) is 82 nM. In addition, the pEC50 in the series on SARS-CoV-2 was 6.85. This molecule also came in with a CC50 at 5 days in series [2] (MT4 CC50 (nM)) of 950 nM.
The matching figures for `CCCCCCCCCCCCCCCCCCOC[C@H](COc1ccc(C#N)nn1)OP(=O)(O)OC[C@H]1O[C@@](C#N)(c2ccc3c(N)ncnn23)[C@H](O)[C@@H]1O` [Example 46, ((2R,3S,4R,5R)-5-(4-aminopyrrolo[2,1-f][1,2,4]triazin-7-yl)-5-cyano-3,4-dihydroxytetrahydrofuran-2-yl)methyl ((R)-1-((6-cyanopyridazin-3-yl)oxy)-3-(octadecyloxy)propan-2-yl) hydrogen phosphate]: 26 nM, 6.92 and 420 nM.
In the same order, the values of `CCCCCCCCCCCCCCCCCCNC(=O)[C@H](COP(=O)(O)OC[C@H]1O[C@@](C#N)(c2ccc3c(N)ncnn23)[C@H](O)[C@@H]1O)OCc1cc(F)cc(C#N)c1` [Example 47, ((2R,3S,4R,5R)-5-(4-aminopyrrolo[2,1-f][1,2,4]triazin-7-yl)-5-cyano-3,4-dihydroxytetrahydrofuran-2-yl)methyl ((S)-2-((3-cyano-5-fluorobenzyl)oxy)-3-(octadecylamino)-3-oxopropyl) hydrogen phosphate] are 32 nM, 6.92 and 420 nM.
In the case of `CCCCCCCCCCCCCCCCCCOC[C@H](COP(=O)(O)OC[C@H]1O[C@@](C#N)(c2ccc3c(N)ncnn23)[C@H](O)[C@@H]1O)NC(=O)c1ccccc1C#N` [Example 58, ((2R,3S,4R,5R)-5-(4-aminopyrrolo[2,1-f][1,2,4]triazin-7-yl)-5-cyano-3,4-dihydroxytetrahydrofuran-2-yl)methyl ((R)-2-(2-cyanobenzamido)-3-(octadecyloxy)propyl) hydrogen phosphate], the EC50 in series [1] came to 300 nM. In the series on SARS-CoV-2, this molecule had a pEC50 of 5.29. This molecule also yielded a half-maximal cytotoxic concentration (CC50) at 5 days in series [2] (MT4 CC50 (nM)) of 43000 nM.
In the same order, the values of `CCCCCCCCCCCCCCOCCOP(=O)(O)OC[C@H]1O[C@@](C#N)(c2ccc3c(N)ncnn23)[C@H](O)[C@@H]1O` [Example 59, [(2R,3S,4R,5R)-5-(4-Aminopyrrolo[2,1-f][1,2,4]triazin-7-yl)-5-cyano-3,4-dihydroxy-tetrahydrofuran-2-yl]methyl 2-tetradecoxyethyl hydrogen phosphate] are 170 nM, 5.00 and 16000 nM.
As to `CCCCCCCCCCCCCCCCCOCCOP(=O)(O)OC[C@H]1O[C@@](C#N)(c2ccc3c(N)ncnn23)[C@H](O)[C@@H]1O` [Example 60, [(2R,3S,4R,5R)-5-(4-aminopyrrolo[2,1-f][1,2,4]triazin-7-yl)-5-cyano-3,4-dihydroxy-tetrahydrofuran-2-yl]methyl 2-heptadecoxyethyl hydrogen phosphate], in series [1], the concentration giving a half-maximal response (EC50) turned out to be 240 nM. For the same molecule, the pEC50 with SARS-CoV-2 is 5.70. Besides, the CC50 at 5 days in series [2] (MT4 CC50 (nM)) turned out to be 4800 nM.
In the same order, the values of `CCCCCCCCCCCCCCSCCCOP(=O)(O)OC[C@H]1O[C@@](C#N)(c2ccc3c(N)ncnn23)[C@H](O)[C@@H]1O` [Example 61, [(2R,3S,4R,5R)-5-(4-aminopyrrolo[2,1-f][1,2,4]triazin-7-yl)-5-cyano-3,4-dihydroxy-tetrahydrofuran-2-yl]methyl 3-tetradecylsulfanylpropyl hydrogen phosphate] are 200 nM, 5.21 and 12000 nM.
In the same order, the values of `CCCCCCCCCCCCCCCCCSCCCOP(=O)(O)OC[C@H]1O[C@@](C#N)(c2ccc3c(N)ncnn23)[C@H](O)[C@@H]1O` [Example 62, [(2R,3S,4R,5R)-5-(4-Aminopyrrolo[2,1-f][1,2,4]triazin-7-yl)-5-cyano-3,4-dihydroxy-tetrahydrofuran-2-yl]methyl 3-heptadecylsulfanylpropyl hydrogen phosphate] are 230 nM, 5.01 and 24000 nM.
The matching figures for `CCCCCCCCCCCCCCCCCCOC[C@H](COP(=O)(O)OC[C@H]1O[C@@](C#N)(c2ccc3c(N)ncnn23)[C@H](O)[C@@H]1O)OCc1ccc(F)c(Cl)c1F` [Example 64, [(2R,3S,4R,5R)-5-(4-Aminopyrrolo[2,1-f][1,2,4]triazin-7-yl)-5-cyano-3,4-dihydroxy-tetrahydrofuran-2-yl]methyl [(2R)-2-[(3-chloro-2,4-difluoro-phenyl)methoxy]-3-octadecoxy-propyl] hydrogen phosphate]: 86 nM, 6.40 and 3100 nM.
In the case of `CCCCCCCCCCCCCCCCCCOC[C@H](CO[P@](O)(=S)OC[C@H]1O[C@@](C#N)(c2ccc3c(N)ncnn23)[C@H](O)[C@@H]1O)OCc1cc(F)cc(C#N)c1` [Example 68], the EC50 in series [1] amounted to 120 nM. The molecule further gave a pEC50 in the series on SARS-CoV-2 of 6.44. Moreover, the CC50 at 5 days in series [2] (MT-4 cells, five days, CellTiter-Glo, read-out: MT4 CC50) came out at 670 nM.

Usually EC50 stands for the concentration giving half of the maximal effect. Usually pEC50 stands for the EC50 on a negative log10 scale, so that one unit is a factor of ten. What is called CC50 is the concentration giving 50% cytotoxicity.
